Laboratory results as given in patent publication US20200131196A1 (Mount Tam Therapeutics, Inc., priority 2017, published 2020).
Where two headings read alike, the source gives them in different places.

How the values were obtained:
CAMA-1 = experiment: OncoPanel cell proliferation assay, CAMA-1
Protocol: (§5) Cells were seeded into 384-well plates and incubated in a humidified atmosphere of 5% CO2 at 37° C. Compounds were added the day following cell seeding. At the same time, a time zero untreated cell plate was generated. After a 3-day incubation period, cells were fixed and stained to allow fluorescence imaging of nuclei. Compounds (1 mM stock solutions) were serially diluted in half-log steps from the highest test concentration (1 micromol), and assayed over 10 concentrations with a maximum assay concentration of 0.1% DMSO. Automated fluorescence microscopy was carried out using a Molecular Devices ImageXpress Micro XL high-content imager, and images were collected with a 4× objective. 16-bit TIFF images were acquired and analyzed with MetaXpress 5.1.0.41 software.
(§6) GI50 is the concentration needed to reduce the observed growth by half (midway between the curve maximum and the time zero value). […] In rare instances, values <0 or >10 may be observed. […] Curve-fitting, calculations, and report generation was performed using a custom data reduction engine and MathIQ based software (AIM).

RKOE6 = experiment: OncoPanel cell proliferation assay, RKOE6
Protocol: as §5, §6

ST486 = experiment: OncoPanel cell proliferation assay, ST486; assay type: cell-based, human
Protocol: (§1) Cells were grown in RPMI 1640, 10% FBS, 2 mM L-alanyl-L-glutamine, 1 mM Na pyruvate, or a special medium. Cells were seeded into 384-well plates and incubated in a humidified atmosphere of 5% CO2 at 37° C. Compounds were added the day following cell seeding. At the same time, a time zero untreated cell plate was generated. After a 3-day incubation period, cells were fixed and stained to allow fluorescence imaging of nuclei. Compounds (1 mM stock solutions) were serially diluted in half-log steps from the highest test concentration ([…]), and assayed over 10 concentrations with a maximum assay concentration of 0.1% DMSO. Automated fluorescence microscopy was carried out using a Molecular Devices ImageXpress Micro XL high-content imager, and images were collected with a 4× objective. 16-bit TIFF images were acquired and analyzed with MetaXpress 5.1.0.41 software.
(§2) Cell proliferation was measured by the fluorescence intensity of an incorporated nuclear dye. The output is referred to as the relative cell count, where the measured nuclear intensity is transformed to percent of control (POC) using the following formula: […]
(§3) Cellular response parameters were calculated using nonlinear regression to a sigmoidal single-site dose response model:
(§4) EC50 is the test compound concentration at the curve inflection point or half the effective response (parameter C of the fitted curve solution). GI50 is the concentration needed to reduce the observed growth by half (midway between the curve maximum and the time zero value). “Cell Count Activity Area” is an estimate of the integrated area above the curve (Barretina, et al. The Cancer Cell Line Encyclopedia enables predictive modelling of anticancer drug sensitivity. Nature 483: 603-607). […] In rare instances, values <0 or >10 may be observed. […] Curve-fitting, calculations, and report generation was performed using a custom data reduction engine and MathIQ based software (AIM).

AGS = experiment: OncoPanel cell proliferation assay, AGS; assay type: cell-based, human
Protocol: as §1, §2, §3, §4

SCaBER = experiment: OncoPanel cell proliferation assay, SCaBER; assay type: cell-based, human
Protocol: as §1, §2, §3, §4

SK-NEP-1 = experiment: OncoPanel cell proliferation assay, SK-NEP-1
Protocol: as §5, §6

[1] = Homo sapiens, read-out: Cell Count EC50
[2] = Homo sapiens, read-out: Cell Count GI50
[3] = Homo sapiens, read-out: Cell Count IC50

CO[C@H]1C[C@@H]2CC[C@@H](C)[C@@](O)(O2)C(=O)C(=O)N2CCCC[C@H]2C(=O)O[C@H]([C@H](C)C[C@H]2C[C@H]3C[C@@H]2C[C@@H]3O)CC(=O)[C@H](C)/C=C(\C)[C@@H](O)[C@@H](OC)C(=O)[C@H](C)C[C@H](C)/C=C/C=C/C=C/1C [Formula II, C37-[(1R,2S,4R,5S)-5-hyhroxybicyclo[2.2.1]heptane] rapamycin]
Cell Count Activity Area (CAMA-1; CAMA-1): 4.22 | Relative cell count (%) Mean (CAMA-1; CAMA-1, 1.00E+00 microM): 42.0% | Relative cell count (%) Mean (CAMA-1; CAMA-1, 1.00E-01 microM): 45.4% | Relative cell count (%) Mean (CAMA-1; CAMA-1, 1.00E-02 microM): 54.6% | Relative cell count (%) Mean (CAMA-1; CAMA-1, 1.00E-03 microM): 64.5% | Relative cell count (%) Mean (CAMA-1; CAMA-1, 1.01E-04 microM): 98.0% | Relative cell count (%) Mean (CAMA-1; CAMA-1, 3.16E-01 microM): 43.0% | Relative cell count (%) Mean (CAMA-1; CAMA-1, 3.17E-02 microM): 45.1% | Relative cell count (%) Mean (CAMA-1; CAMA-1, 3.17E-03 microM): 55.9% | Relative cell count (%) Mean (CAMA-1; CAMA-1, 3.18E-04 microM): 79.7% | Relative cell count (%) Mean (CAMA-1; CAMA-1, 3.18E-05 microM): 96.5% | EC50 (CAMA-1; Homo sapiens, CAMA-1, read-out: Cell Count EC50): 0.491 nM | GI50 (CAMA-1; Homo sapiens, CAMA-1, read-out: Cell Count GI50): 0.647 nM | IC50 (CAMA-1; Homo sapiens, CAMA-1, read-out: Cell Count IC50): 4.34 nM | EC50 (RKOE6; Homo sapiens, RKOE6, read-out: Cell Count EC50): 1.13 nM | GI50 (RKOE6; Homo sapiens, RKOE6, read-out: Cell Count GI50): 5.57 nM | IC50 (RKOE6; Homo sapiens, RKOE6, read-out: Cell Count IC50): 14.2 nM | Cell Count Activity Area (RKOE6; RKOE6): 3.66 | Relative cell count (%) Mean (RKOE6; RKOE6, 1.00E+00 microM): 40.1% | Relative cell count (%) Mean (RKOE6; RKOE6, 1.00E-01 microM): 43.1% | Relative cell count (%) Mean (RKOE6; RKOE6, 1.00E-02 microM): 52.2% | Relative cell count (%) Mean (RKOE6; RKOE6, 1.00E-03 microM): 64.1% | Relative cell count (%) Mean (RKOE6; RKOE6, 1.01E-04 microM): 94.2% | Relative cell count (%) Mean (RKOE6; RKOE6, 3.16E-01 microM): 43.1% | Relative cell count (%) Mean (RKOE6; RKOE6, 3.17E-02 microM): 49.1% | Relative cell count (%) Mean (RKOE6; RKOE6, 3.17E-03 microM): 65.3% | Relative cell count (%) Mean (RKOE6; RKOE6, 3.18E-04 microM): 84.4% | Relative cell count (%) Mean (RKOE6; RKOE6, 3.18E-05 microM): 98.6% | Cell Count Activity Area (ST486): 3.05 | Relative cell count (%) Mean (ST486; 1.00E+00 microM): 55.2% | Relative cell count (%) Mean (ST486; 1.00E-01 microM): 56.2% | Relative cell count (%) Mean (ST486; 1.00E-02 microM): 57.6% | Relative cell count (%) Mean (ST486; 1.00E-03 microM): 72.7% | Relative cell count (%) Mean (ST486; 1.01E-04 microM): 90.5% | Relative cell count (%) Mean (ST486; 3.16E-01 microM): 49.9% | Relative cell count (%) Mean (ST486; 3.17E-02 microM): 55.2% | Relative cell count (%) Mean (ST486; 3.17E-03 microM): 58.2% | Relative cell count (%) Mean (ST486; 3.18E-04 microM): 77.5% | Relative cell count (%) Mean (ST486; 3.18E-05 microM): 92.2% | EC50 (ST486; [1]): 0.581 nM | GI50 (ST486; [2]): 1.17 nM | IC50 (ST486; [3]): > 1000 nM | Cell Count Activity Area (AGS): 5.29 | Relative cell count (%) Mean (AGS; 1.00E+00 microM): 41.7% | Relative cell count (%) Mean (AGS; 1.00E-01 microM): 44.3% | Relative cell count (%) Mean (AGS; 1.00E-02 microM): 41.0% | Relative cell count (%) Mean (AGS; 1.00E-03 microM): 48.7% | Relative cell count (%) Mean (AGS; 1.01E-04 microM): 87.1% | Relative cell count (%) Mean (AGS; 3.16E-01 microM): 40.7% | Relative cell count (%) Mean (AGS; 3.17E-02 microM): 42.8% | Relative cell count (%) Mean (AGS; 3.17E-03 microM): 51.4% | Relative cell count (%) Mean (AGS; 3.18E-04 microM): 63.8% | Relative cell count (%) Mean (AGS; 3.18E-05 microM): 124.5% | EC50 (AGS; [1]): 0.133 nM | GI50 (AGS; [2]): 0.245 nM | IC50 (AGS; [3]): 0.297 nM | Cell Count Activity Area (SCaBER): 4.82 | Relative cell count (%) Mean (SCaBER; 1.00E+00 microM): 32.7% | Relative cell count (%) Mean (SCaBER; 1.00E-01 microM): 44.5% | Relative cell count (%) Mean (SCaBER; 1.00E-02 microM): 42.2% | Relative cell count (%) Mean (SCaBER; 1.00E-03 microM): 56.1% | Relative cell count (%) Mean (SCaBER; 1.01E-04 microM): 83.1% | Relative cell count (%) Mean (SCaBER; 3.16E-01 microM): 36.3% | Relative cell count (%) Mean (SCaBER; 3.17E-02 microM): 39.5% | Relative cell count (%) Mean (SCaBER; 3.17E-03 microM): 50.7% | Relative cell count (%) Mean (SCaBER; 3.18E-04 microM): 63.5% | Relative cell count (%) Mean (SCaBER; 3.18E-05 microM): 93.1% | EC50 (SCaBER; Homo sapiens, Bladder, summary Table 5, read-out: EC50): 0.25 nM | EC50 (SCaBER; [1]): 0.25 nM | GI50 (SCaBER; [2]): 0.872 nM | IC50 (SCaBER; [3]): 1.59 nM | EC50 (SK-NEP-1; Homo sapiens, SK-NEP-1, read-out: Cell Count EC50): 2.48 nM | GI50 (SK-NEP-1; Homo sapiens, SK-NEP-1, read-out: Cell Count GI50): 3.27 nM | IC50 (SK-NEP-1; Homo sapiens, SK-NEP-1, read-out: Cell Count IC50): 18.1 nM | Cell Count Activity Area (SK-NEP-1; SK-NEP-1): 3.36 | Relative cell count (%) Mean (SK-NEP-1; SK-NEP-1, 1.00E+00 microM): 41.8% | Relative cell count (%) Mean (SK-NEP-1; SK-NEP-1, 1.00E-01 microM): 45.4% | Relative cell count (%) Mean (SK-NEP-1; SK-NEP-1, 1.00E-02 microM): 59.8%
